Where “and” joins values, the source holds several entries; their conditions need not be identical. Identical values can stand only once. Like-named read-outs stand apart in the source and are kept apart here. Where no end group is shown, it is not given here.
Assays:
[1] = system: Acinetobacter baumannii ATCC 19606; assay: Antimicrobial growth inhibition (CO-ADD); assay type: cell-based; details: for Max response ± SEM: percentage growth inhibition, mean ± SEM; for Max response ± SEM / MIC: absorbance at 600 nm; for MIC: sigmoidal dose-response fit of growth inhibition; for EC50: summary of Table S2
Procedure: (§1) Antimicrobial and cytotoxicity assays were performed by CO-ADD (The Community for Antimicrobial Drug Discovery, Institute for Molecular Bioscience, The University of Queensland). […] Percentage growth inhibition was calculated using negative controls (media only) and positive controls (no peptide). For the hemolysis assays, human whole blood was washed three times with 3 volumes of 0.9% NaCl and then resuspended in 0.9% NaCl to a concentration of 0.5 × 10^8 cells/mL. Cells were incubated for 1 h at 37°C with or without the peptide. After incubation, plates were centrifuged at 1000 g for 10 min to pellet cells and debris and hemolysis determined by measuring the supernatant absorbance at 405 nm.

[2] = system: Escherichia coli ATCC 25922; assay: Antimicrobial growth inhibition (CO-ADD); assay type: cell-based; details: absorbance at 600 nm; for Max response ± SEM: percentage growth inhibition, mean ± SEM; for MIC: sigmoidal dose-response fit of growth inhibition
Procedure: as §1

[3] = system: Klebsiella pneumoniae ATCC 700603; assay: Antimicrobial growth inhibition (CO-ADD); assay type: cell-based; details: absorbance at 600 nm; for Max response ± SEM: percentage growth inhibition, mean ± SEM; for MIC: sigmoidal dose-response fit of growth inhibition
Procedure: as §1

[4] = system: Pseudomonas aeruginosa ATCC 27853; assay: Antimicrobial growth inhibition (CO-ADD); assay type: cell-based; details: absorbance at 600 nm; for Max response ± SEM: percentage growth inhibition, mean ± SEM; for MIC: sigmoidal dose-response fit of growth inhibition
Procedure: as §1

[5] = system: Staphylococcus aureus ATCC 43300; assay: Antimicrobial growth inhibition (CO-ADD); assay type: cell-based; details: for Max response ± SEM: percentage growth inhibition, mean ± SEM; for Max response ± SEM / MIC: absorbance at 600 nm; for MIC: sigmoidal dose-response fit of growth inhibition; for EC50: summary of Table S2
Procedure: as §1

[6] = system: Candida albicans ATCC 90028; assay: Antifungal growth inhibition (CO-ADD); assay type: cell-based; details: absorbance at 530 nm; for Max response ± SEM: percentage growth inhibition, mean ± SEM; for MIC: sigmoidal dose-response fit of growth inhibition
Procedure: as §1

[7] = system: Cryptococcus neoformans var. grubii H99; ATCC 208821; assay: Antifungal growth inhibition (CO-ADD); assay type: cell-based; details: for Max response ± SEM: percentage growth inhibition, difference in absorbance 600 and 570 nm after resazurin, 35°C 2 h, mean ± SEM; for MIC: sigmoidal dose-response fit of growth inhibition, resazurin read-out
Procedure: as §1

panel of microbes = assay: Antimicrobial screening, summary over the panel of microbes; assay type: cell-based
Procedure: as §1

[8] = system: Human embryonic kidney cells ATCC CRL-1573; assay: Cytotoxicity assay (CO-ADD), resazurin; assay type: cell-based; details: resazurin fluorescence; for Max response ± SEM: percentage growth inhibition, 37°C 5% CO2, mean ± SEM; for CC50 (concentration at 50% cytotoxicity): sigmoidal dose-response fit
Procedure: as §1

Human red blood cells = assay: Hemolysis assay (CO-ADD); assay type: cell-based; details: 1 h at 37°C; for HC50 (concentration at 50% hemolytic activity): absorbance at 405 nm, sigmoidal dose-response fit; for Max response ± SEM: hemolysis, washed human blood 0.5 × 10^8 cells/mL in 0.9% NaCl, supernatant absorbance at 405 nm, mean ± SEM
Procedure: as §1

[9] = system: F11 (mouse neuroblastoma × rat dorsal root ganglion (DRG) neuron hybrid) cells; assay: Calcium imaging of F11 cells (FLIPR); assay type: cell-based; details: increase in [Ca2+]i
Procedure: F11 (mouse neuroblastoma × rat dorsal root ganglion (DRG) neuron hybrid) cells were cultured as previously described. Cells were maintained on Ham’s F12 media supplemented with 10 % fetal bovine serum, 100 μM hypoxanthine, 0.4 μM aminopterin, and 16 μM thymidine (Hybri-MaxTM, Sigma Aldrich). 384-well imaging plates (Corning, Lowell, MA, USA) were seeded 48 h prior to imaging resulting in 90 – 95% confluence at imaging. Cells were incubated for 30 min with Calcium 4 assay component A, as per the manufacturer’s instructions (Molecular Devices, Sunnyvale, CA) in physiological salt solution (PSS; composition in mM: 140 NaCl, 11.5 D-glucose, 5.9 KCl, 1.4 MgCl2, 1.2 NaH2PO4, 5 NaHCO3, 1.8 CaCl2, 10 HEPES) at 37°C. […] Signals were read every second for 10 s before, and 300 s after, the addition of peptides in PSS supplemented with 0.1% bovine serum albumin. All data represent mean ± SEM of a representative assay in triplicate. Fluorescence changes on peptide addition were compared to addition of negative control solution (0.1% BSA in PSS). The resulting maximum-minimum fluorescence in the 300 s period after peptide addition was recorded as the response.

HEK = assay: Ion permeability HEK; assay type: cell-based, Human; details: ions listed as permeant; - = none
F11 = assay: Ion permeability F11; assay type: cell-based, mouse; details: ions listed as permeant; - = none
[10] = system: Female fruit flies (D. melanogaster strain Canton-S); assay: Fruit fly injection assay (lethality, paralysis, climbing); assay type: in vivo, Drosophila melanogaster; details: 5 nmol/g injected, climbing assay 5 min after injection; significant versus control
Procedure: Female fruit flies (D. melanogaster strain Canton-S) were injected four to six days post-emergence. Female flies were used because their larger size makes injection easier. Groups of eight female flies were assayed in triplicate for each dose tested. Injection needles were formed from glass capillary tubes (#3-000-203-G/X, Drummond, Birmingham, AL, USA) using a micropipette puller (Sutter Instrument Co. Model P-97), with the fine tip manually trimmed afterwards using scissors. Needles then were filled with mineral oil, connected to a Nanoliter 2000 microinjector ([…], Bensenville, IL USA) equipped with a foot pedal, and ~1 μL of peptide solution or water aspirated. Each group of flies were immobilized by cooling for approximately 2 min on ice, and then decanted on the top of the ‘injection stage’, a petri dish filled with ice. Under a dissecting microscope, each fly was carefully impaled on the lateral thorax behind the wing, and 50.6 nL of venom peptide or water was injected. After injection, each group of flies were returned to their 5 mL plastic tube at room temperature and their behavior observed.

HAP1 cells = assay: Cell viability assay, resazurin; assay type: cell-based
Procedure: In addition to the cytotoxicity assays performed by CO-ADD, we screened the synthetic peptides for toxicity in cell viability assays using HAP1, MM96L, and HEK293T cells. peptides were reconstituted in 100% DMSO then diluted in cell media (HAP1: IMDM (Sigma Aldrich) with 10% FBS and 1% Penicillin/Streptomycin (P/S); MM96L: RPMI (Gibco) with 10% FBS, 1% P/S and 1% GlutaMAX (Gibco); HEK293T: DMEM high glucose (Gibco), with 10% FBS and 1% P/S. Trypsinized cells ([…]) were seeded in each well of a 96-well plate. 0.01 to 1000 μM peptide was added to each well after 24 h, and the cells incubated for an additional 74 h. After incubation, the medium was aspirated from each well and 150 μL of fresh medium containing a 0.002% solution of resazurin (Sigma-Aldrich) was added to the wells and incubated for 4 h at 37 °C. The absorbance was measured at 570 nm using a microplate spectrophotometer (FLUOstar Omega, BMG Labtech, Germany). Percentage cell viability at concentrations of 10 and 100 μM peptide were compared with negative control by one-way ANOVA Dunnett’s multiple comparisons test (GraphPad Prism8).

[11] = all strains of the panel (for Rm54a and Rm55a: strains other than S. aureus)
[12] = max-min fluorescence over 300 s, read-out: EC50 (F11 cells, Table S2)

Substance | Max response ± SEM [1] | MIC [1] [µM] | Max response ± SEM [2] | MIC [2] [µM] | Max response ± SEM [3] | MIC [3] [µM] | Max response ± SEM [4] | MIC [4] [µM] | Max response ± SEM [5] | MIC [5] [µM] | Max response ± SEM [6] | MIC [6] [µM] | Max response ± SEM [7] | MIC [7] [µM] | Growth inhibition over the microbial strains examined (panel of microbes; [11]) | Max response ± SEM [8] | CC50 (concentration at 50% cytotoxicity) [8] | HC50 (concentration at 50% hemolytic activity) (Human red blood cells) | ion permeability HEK (HEK) | ion permeability F11 (F11) | further results
RNVPRWFTPRL-NH2 [Rm52d] | 5 ± 2 | >22 | 1 ± 2 | >22 | 5 ± 0 | >22 | 7 ± 0 | >22 | 12 ± 6 | >22 | 2 ± 1 | >22 | -13 ± 5 | >22 | no inhibitory activity | – | – | – | – | – | –
FIGGLIKFIAKFVPKILPFFQKKN-OH [Rm34a] | 100 ± 0 | ≤0.09 | 98 ± 0 | 8.6 | 70 ± 28 | 11 | 85 ± 6 | 11 | 102 ± 2 | ≤0.09 | 100 ± 2 | 0.72 | 101 ± 0 | 6.1 | complete or near-complete growth inhibition of all microbial strains | 57 ± 5 | 1.7 µM | 3.3 µM | Ca2+,Na+,Th+ | Ca2+,Na+,Th+ | EC50 [1]: ≤ 0.09 µM; EC50 [5]: ≤ 0.09 µM; EC50 [9, 12]: 4.8 µM; Motor behavior (climbing assay) [10]: disrupted motor behavior; Cytotoxicity to HAP cells (HAP1 cells): cytotoxic to HAP cells; HAP cell viability (HAP1 cells; 10 μM peptide, n = 3 per group): significantly reduced HAP cell viability
FLPFLIPVIASLVSSLK-NH2 [Rm55a] | 24 ± 1 | >17 | 4 ± 1 | >17 | 8 ± 1 | >17 | 10 ± 1 | >17 | 103 ± 2 | ≤0.14 | 3 ± 0 | >17 | -10 ± 0 | >17 | not affecting any of the other strains examined | 51 ± 0 | >17 (CC50) uM | >17 (HC50) uM | Ca2+,Na+ | Ca2+,Na+,Th+ | Inhibition of S. aureus (in words) [5]: complete inhibition; EC50 [5]: ≤ 0.14 µM; Max response ± SEM (Human red blood cells): 15 ± 6; EC50 ([9]; max – min fluorescence, n = 3, four-parameter Hill equation, read-out: EC50 (effect on F11 cells, Fig. 5)): 9.2 µM; Cytotoxicity to HAP cells (HAP1 cells): cytotoxic to HAP cells; HAP cell viability (HAP1 cells; 100 μM peptide, n = 3, mean ± SEM): 24.6 ± 8.1%
ALWDTIKKWVAKVLPLVKNALK-NH2 [Rm20a] | 100 ± 1 | ≤0.10 | 100 ± 0 | 13 | 71 ± 29 | >13 | 14 ± 2 | >13 | 102 ± 2 | 1.6 | 8 ± 7 | >13 | 88 ± 1 | 0.79 | – | 57 ± 5 | 11 µM | >13 (HC50) uM | Ca2+,Na+,Th+ | Ca2+,Na+,Th+ | EC50 [1]: ≤ 0.1 µM; EC50 [9, 12]: 8.1 µM; Cytotoxicity to HAP cells (HAP1 cells): cytotoxic to HAP cells; HAP cell viability (HAP1 cells; 10 μM peptide, n = 3 per group): significantly reduced HAP cell viability; Growth inhibition over the microbial strains examined (panel of microbes; all microbial strains except Pseudomonas aeruginosa and Candida albicans): complete or near-complete growth inhibition of all microbial strains
ILPALIPVFASLLPWAIKKF-NH2 [Rm55b] | 98 ± 0 | 14 | 11 ± 1 | >14 | 12 ± 1 | >14 | 3 ± 1 | >14 | 103 ± 1 | ≤0.11 | 3 ± 0 | >14 | 86 ± 4 | 11 | – | 98 ± 1 | 2.6 µM | 7.4 µM | Ca2+,Na+,Th+ | Ca2+,Na+,Th+ | Max response ± SEM (Human red blood cells): 40 ± 3; EC50 [9, 12]: 4 µM; Motor behavior (climbing assay) [10]: disrupted motor behavior; Cytotoxicity to HAP cells (HAP1 cells): cytotoxic to HAP cells; HAP cell viability (HAP1 cells; 10 μM peptide, n = 3 per group): significantly reduced HAP cell viability
FWLKGGRGDG-NH2 [Rm53a/b] | 5 ± 1 and 4 ± 2 | >29 | 4 ± 1 and 3 ± 1 | >29 | 5 ± 0 | >29 | 12 ± 4 and 11 ± 5 | >29 | 5 ± 1 and 7 ± 2 | >29 | – | >29 | – | >29 | no inhibitory activity | – | – | – | – | – | –

Source: publication PMC9827630, “Intra-colony venom diversity contributes to maintaining eusociality in a cooperatively breeding ant” (BMC Biology, 2023)
